Assay results as given in US8962853B2, “Chemical probe compounds that become fluorescent upon reduction, and methods for their use” (Life Technologies Corporation, priority 2005, dated 2015).

Legend:
[1] = test system: S. aureus; experiment: Electron transport system (ETS) inhibition assay; assay type: cell-based, Staphylococcus aureus; settings: for fluorescence signal of stain, S. aureus: no ETS inhibitor (Untreated)
Description: (§1) S. aureus and E. coli were treated with known inhibitors of the electron transport system (ETS) to determine if reductase moieties in the ETS would reduce exemplary stain compounds. […] The bacteria were diluted in PBS buffer and treated with the various ETS inhibitors, stained with 500 nM stain compound (18) for 10 minutes, and then analyzed by flow cytometry using a Becton Dickinson FACSCalibur™ instrument (Becton, Dickinson and Company; Franklin Lakes, N.J.) containing a 488 nm argon ion laser.
(§2) Stain compound (19) was assayed according to the procedure outlined in Example 23.
(§3) Stain compound (22) was assayed according to the procedure outlined in Example 23.
(§4) Stain compound (24) was assayed according to the procedure outlined in Example 23.

[2] = test system: E. coli; experiment: Electron transport system (ETS) inhibition assay; assay type: cell-based, Escherichia coli; settings: for fluorescence signal of stain, E. coli: no ETS inhibitor (Untreated)
Description: as §1, §2, §3, §4

[3] = test system: S. aureus; experiment: Titration series on cultured bacteria; assay type: cell-based, Staphylococcus aureus; settings: titration 10 nM to 1 uM
Description: (§5) The x-axis represents the concentration of compound (18) in nM, while the y-axis represents FL1 GeoMean fluorescence.
(§6) A titration series was performed on cultured bacteria. Chemical compound (18) was used at concentrations ranging from 10 nM to 1 uM for S. aureus and B. subtilis (FIG. 2), and 500 nM to 4 uM for E. coli and K. pneumoniae (FIG. 3).

[4] = test system: B. subtilis; experiment: Titration series on cultured bacteria; assay type: cell-based, Bacillus subtilis; settings: titration 10 nM to 1 uM
Description: as §5, §6

[5] = test system: E. coli; experiment: Titration series on cultured bacteria; assay type: cell-based, Escherichia coli; settings: titration 500 nM to 4 uM; Gram-negative organisms tested
Description: as §5, §6

[6] = test system: K. pneumoniae; experiment: Titration series on cultured bacteria; assay type: cell-based, Klebsiella pneumoniae; settings: titration 500 nM to 4 uM; Gram-negative organisms tested
Description: as §5, §6

[7] = test system: S. aureus; experiment: Staining of bacteria, flow cytometry; assay type: cell-based, Staphylococcus aureus; settings: 500 nM, 10 minutes
Description: (§7) Gram-positive and Gram-negative bacteria were labeled using compound (18). S. aureus and B. subtilis were used as examples of Gram-positive bacteria, and E. coli and K. pneumoniae were used as examples of Gram-negative bacteria. Cells were diluted in buffer to about 10^6 cells/mL. The bacteria were contacted with compound 18 (500 nM) for 10 minutes in Hank's Balanced Salt Solution (HBSS) or various other buffers such as PBS. The samples were analyzed by flow cytometry using a Becton Dickinson FACScan™ instrument (Becton, Dickinson and Company; Franklin Lakes, N.J.) containing a 488 nm argon ion laser. Cells were analyzed directly without washing, or optionally, were fixed with 1-4% formaldehyde prior to flow cytometric analysis.

[8] = test system: B. subtilis; experiment: Staining of bacteria, flow cytometry; assay type: cell-based, Bacillus subtilis; settings: 500 nM, 10 minutes
Description: as §7

[9] = test system: E. coli; experiment: Staining of bacteria, flow cytometry; assay type: cell-based, Escherichia coli; settings: 500 nM, 10 minutes
Description: as §7

[10] = test system: K. pneumoniae; experiment: Staining of bacteria, flow cytometry; assay type: cell-based, Klebsiella pneumoniae; settings: 500 nM, 10 minutes
Description: as §7

[11] = test system: S. aureus; experiment: Time course treatments (growth and stain fluorescence); assay type: cell-based, Staphylococcus aureus; settings: compound present in broth culture medium
Description: Control samples that were untreated were also prepared.
Samples were taken once every hour for six hours and stained with 500 nM compound (18) for 10 minutes, then analyzed by flow cytometry using a Becton Dickinson FACSCalibur™ instrument (Becton, Dickinson and Company; Franklin Lakes, N.J.) containing a 488 nm argon ion laser. Not only did the treated cells not proliferate, but the signal from the stain in treated samples decreased once the cells entered ‘log-growth’ phase as compared to the untreated control.

[12] = test system: S. aureus; experiment: Stability of fluorescence; assay type: cell-based, Staphylococcus aureus; settings: monitored for one hour
Description: (§8) Compound (18) was contacted with cultures of S. aureus, B. subtilis, E. coli, and K. pneumoniae. The fluorescence of the samples were monitored for one hour. The signal developed very quickly for S. aureus and B. subtilis, and stabilized within 10 minutes. The signal was stable for at least one hour (FIG. 6).

[13] = test system: B. subtilis; experiment: Stability of fluorescence; assay type: cell-based, Bacillus subtilis; settings: monitored for one hour
Description: as §8

[14] = test system: S. aureus; experiment: Fixation assays (compatibility with fixed samples); assay type: cell-based, Staphylococcus aureus; settings: 100 nM, 10 minutes, HBSS
Description: A culture of S. aureus was grown to log-phase, and washed and diluted in HBSS to 10^6 cells per mL. Samples of 1 mL each were aliquotted to six flow cytometry tubes. CCCP was added to three of the samples at a final concentration of 10 μM. The samples were incubated for 1-5 minutes. Compound (18) was added at a final concentration of 100 nM, and the samples were allowed to sit for 10 minutes. The +/− CCCP tubes were divided into two sets: one set received 1 mL of 100% ethanol, and the other set received 100 µL of 10% formaldehyde (methanol-free). The samples were analyzed using a Becton Dickinson FACSCalibur as described in Example 23.

[15] = stained with compound (18) 500 nM, rotenone 1 mM, antimycin A 20 uM, azide 10 mM, CCCP 10 uM
[16] = buffer Sodium chloride + 10 mM glucose
[17] = stain compound (18) 500 nM, 10 minutes, PBS

N#CC(C#N)=NNc1cccc(Cl)c1 [CCCP, carbonyl cyanide m-chlorophenylhydrazone]
fluorescence signal after inhibitor treatment, S. aureus [1, 15]: 4.19 | fluorescence signal after inhibitor treatment, S. aureus ([1]; stained with compound (19)): 46.73 | fluorescence signal after inhibitor treatment, S. aureus ([1]; stained with compound (22)): 240.61 | fluorescence signal after inhibitor treatment, S. aureus ([1]; stained with compound (24)): 402.19 | fluorescence signal after inhibitor treatment, E. coli [2, 15]: 150.7 | fluorescence signal after inhibitor treatment, E. coli ([2]; stained with compound (19)): 12.59 | fluorescence signal after inhibitor treatment, E. coli ([2]; stained with compound (22)): 63.26 | fluorescence signal after inhibitor treatment, E. coli ([2]; stained with compound (24)): 152.7

CC1=C(C)C(=O)C(N2CCC(NC(=O)CCCN(C)C3=C/C(=C\c4sc5ccccc5[n+]4C)c4ccccc4N3c3ccccc3)CC2)=C(C)C1=O [Compound 18]
concentration found to work well for staining [3]: 50 to 100 nM | optimal concentration for staining [4]: about 500 nM | preferred concentration for staining [5]: about 1 uM | preferred concentration for staining [6]: about 1 uM | FL1 GeoMean fluorescence ([7]; buffer HBSS): 2168.52 | FL1 GeoMean fluorescence ([7]; buffer PBS + 1 mM EDTA): 1583.19 | FL1 GeoMean fluorescence ([7]; buffer PBS + 0.01% Tween-20): 2909.97 | FL1 GeoMean fluorescence ([7]; buffer PBS + 0.1% Pluronic): 1685.21 | FL1 GeoMean fluorescence ([7]; buffer PBS): 1976.41 | FL1 GeoMean fluorescence [7, 16]: 2183.44 | FL1 GeoMean fluorescence ([7]; buffer Sodium chloride): 2171.61 | FL1 GeoMean fluorescence ([8]; buffer HBSS): 902.22 | FL1 GeoMean fluorescence ([8]; buffer PBS + 1 mM EDTA): 57.75 | FL1 GeoMean fluorescence ([8]; buffer PBS + 0.01% Tween-20): 844.66 | FL1 GeoMean fluorescence ([8]; buffer PBS + 0.1% Pluronic): 470.35 | FL1 GeoMean fluorescence ([8]; buffer PBS): 902.15 | FL1 GeoMean fluorescence [8, 16]: 943.79 | FL1 GeoMean fluorescence ([8]; buffer Sodium chloride): 951.93 | FL1 GeoMean fluorescence ([9]; buffer HBSS): 42.1 | FL1 GeoMean fluorescence ([9]; buffer PBS + 1 mM EDTA): 70.92 | FL1 GeoMean fluorescence ([9]; buffer PBS + 0.01% Tween-20): 44.48 | FL1 GeoMean fluorescence ([9]; buffer PBS + 0.1% Pluronic): 136.43 | FL1 GeoMean fluorescence ([9]; buffer PBS): 30.25 | FL1 GeoMean fluorescence [9, 16]: 11.52 | FL1 GeoMean fluorescence ([9]; buffer Sodium chloride): 12.43 | FL1 GeoMean fluorescence ([10]; buffer HBSS): 19.9 | FL1 GeoMean fluorescence ([10]; buffer PBS + 1 mM EDTA): 48.67 | FL1 GeoMean fluorescence ([10]; buffer PBS + 0.01% Tween-20): 29 | FL1 GeoMean fluorescence ([10]; buffer PBS + 0.1% Pluronic): 78.1 | FL1 GeoMean fluorescence ([10]; buffer PBS): 17.91 | FL1 GeoMean fluorescence [10, 16]: 9.7 | FL1 GeoMean fluorescence ([10]; buffer Sodium chloride): 9.16 | proliferation of S. aureus [11]: prevented proliferation | time for fluorescence signal to stabilize [12]: ≤ 10 min | time the fluorescence signal was stable [12]: at least one | time for fluorescence signal to stabilize [13]: ≤ 10 min | time the fluorescence signal was stable [13]: at least one | Fluorescence ([14]; CCCP No, Fixation agent Ethanol): 135 | Fluorescence ([14]; CCCP No, Fixation agent Formaldehyde): 936 | Fluorescence ([14]; CCCP No, Fixation agent None): 1720 | Fluorescence ([14]; CCCP Yes (10 μM), Fixation agent Ethanol): 53 | Fluorescence ([14]; CCCP Yes (10 μM), Fixation agent Formaldehyde): 274 | Fluorescence ([14]; CCCP Yes (10 μM), Fixation agent None): 110 | fluorescence signal of stain, S. aureus [1, 17]: 351.91 | fluorescence signal of stain, E. coli [2, 17]: 85.33

CC1=C(C)C(=O)C(N2CCN(C(=O)CCCN(C)C3=C/C(=C\c4sc5ccccc5[n+]4C)C=CN3c3ccccc3)CC2)=C(C)C1=O [Compound 19]
fluorescence signal of stain, S. aureus ([1]; stain compound (19)): 248.1 | fluorescence signal of stain, E. coli ([2]; stain compound (19)): 59.78

CC1=C(NCCCN(C)C2=C/C(=C\c3sc4ccccc4[n+]3C)c3ccccc3N2c2ccccc2)C(=O)c2ccccc2C1=O [Compound 22]
fluorescence signal of stain, S. aureus ([1]; stain compound (22)): 594.12 | fluorescence signal of stain, E. coli ([2]; stain compound (22)): 90.91

CC1=C(C)C(=O)C(N(C)CCCN(C)C2=C/C(=C\c3sc4ccccc4[n+]3C)c3ccccc3N2c2ccccc2)=C(C)C1=O [Compound 24]
fluorescence signal of stain, S. aureus ([1]; stain compound (24)): 853.47 | fluorescence signal of stain, E. coli ([2]; stain compound (24)): 114.71

C=C(C)[C@H]1Cc2c(ccc3c2O[C@@H]2COc4cc(OC)c(OC)cc4[C@@H]2C3=O)O1 [Rotenone, rotenone]
fluorescence signal after inhibitor treatment, S. aureus [1, 15]: 32.75 | fluorescence signal after inhibitor treatment, S. aureus ([1]; stained with compound (19)): 8.19 | fluorescence signal after inhibitor treatment, S. aureus ([1]; stained with compound (22)): 11.74 | fluorescence signal after inhibitor treatment, S. aureus ([1]; stained with compound (24)): 17.17 | fluorescence signal after inhibitor treatment, E. coli [2, 15]: 24.05 | fluorescence signal after inhibitor treatment, E. coli ([2]; stained with compound (19)): 20.56 | fluorescence signal after inhibitor treatment, E. coli ([2]; stained with compound (22)): 38.81 | fluorescence signal after inhibitor treatment, E. coli ([2]; stained with compound (24)): 44.66

antimycin A
fluorescence signal after inhibitor treatment, S. aureus [1, 15]: 59.41 | fluorescence signal after inhibitor treatment, S. aureus ([1]; stained with compound (19)): 4.1 | fluorescence signal after inhibitor treatment, S. aureus ([1]; stained with compound (22)): 6.16 | fluorescence signal after inhibitor treatment, S. aureus ([1]; stained with compound (24)): 6.56 | fluorescence signal after inhibitor treatment, E. coli [2, 15]: 34.65 | fluorescence signal after inhibitor treatment, E. coli ([2]; stained with compound (19)): 12.4 | fluorescence signal after inhibitor treatment, E. coli ([2]; stained with compound (22)): 20.17 | fluorescence signal after inhibitor treatment, E. coli ([2]; stained with compound (24)): 26.28
